Reference: PMC7066280 (Investigational New Drugs, 2019)
“Also recorded” adds a separate entry of the source. Where two headings read alike, the source gives them in different places.

What was measured:
[1] = Ivosidenib plasma PK after a single oral dose (day −3, dose escalation), LC-MS/MS, non-compartmental; type: in vivo; conditions: human; for AUC(0-t): read-out: AUC0-72h
Method: In the dose escalation portion, patients with 1) glioma and 2) non-glioma solid tumors were enrolled into sequential cohorts using a standard 3 + 3 design. […] At least 3 patients in each cohort also received a single dose 3 days prior to the start of multiple dosing (i.e., day −3).
These samples were optional for any further patients enrolled in these cohorts. Further blood samples were collected from all patients up to 10 h postdose on cycle 1, day 15 and cycle 2, day 1. A subset of samples was also used for evaluation of plasma 4β-hydroxycholesterol (4β-OHC) and 4β-OHC:cholesterol ratios. Blood samples for assessment of 2-HG only were also collected at screening.
Plasma ivosidenib was measured using two validated liquid chromatography-tandem mass spectrometry (LC-MS/MS) methods. The lower limit of quantification (LLOQ) was 1.00 ng/mL (low-range assay) or 50.0 ng/mL (high-range assay). […] Plasma 2-HG concentrations were measured using a qualified LC-MS/MS method with an LLOQ of 30.0 ng/mL. Concentrations of 2-HG in tumor biopsy samples were quantified using qualified LC-MS/MS methods with an LLOQ of 7.5 μg/g for brain tumor homogenate, 100 ng/g for liver tumor homogenate (low-range assay), and 30 μg/g for liver tumor homogenate (high-range assay). Plasma 4β-OHC and cholesterol were measured using a validated LC-MS/MS method. The LLOQ was 5 ng/mL for 4β-OHC and 25 μg/mL for cholesterol in human plasma.
PK parameters included area under the plasma concentration-time curve (AUC), maximum plasma concentration (Cmax), time to maximum plasma concentration (Tmax), terminal elimination half-life (t1/2), and apparent oral clearance at steady state (CLss/F). Accumulation ratio (Racc), based on Cmax and AUC, was also assessed during the dose escalation portion. PD (2-HG) parameters included baseline-effect value, area under the effect concentration-time curve (AUEC0-10h for the dose escalation portion, or AUEC0-8h for the dose escalation and expansion portions), percent change from baseline in AUEC (%BAUEC0-10h for the escalation portion, or %BAUEC0-8h for the dose escalation and expansion portions), average plasma concentration (Cavg), and percent inhibition for Cavg (%BCavg). For the dose escalation portion, the time-matched ratios of 4β-OHC to cholesterol were calculated.

[2] = Effect of intrinsic and extrinsic factors on ivosidenib CLss/F; type: in vivo, human; conditions: 500 mg QD, cycle 2 day 1
Method: Continuous factors assessed included age, body weight, body mass index, baseline creatinine clearance (CLcr), baseline estimated glomerular filtration rate (eGFR), and markers of hepatic function (alanine aminotransferase [ALT], alkaline phosphatase [ALP], aspartate aminotransferase [AST], bilirubin, total protein, and albumin). CLcr was calculated using the Cockcroft and Gault equation and eGFR was calculated using the Modification of Diet in Renal Disease – National Kidney Disease Education Program equations [15]. Categorical factors assessed included sex, ethnicity, race, disease status, concomitant CYP3A4 inhibitor and inducer status, baseline hepatic and renal function category, and tumor type. Renal function was categorized as normal (CLcr ≥ 90 mL/min or eGFR ≥90 mL/min/1.73 m^2), mild impairment (CLcr ≥ 60–89 mL/min or eGFR ≥60–89 mL/min/1.73 m^2), moderate impairment (CLcr ≥ 30–59 mL/min or eGFR ≥30–59 mL/min/1.73 m^2), and severe impairment (CLcr ≥ 15–29 mL/min or eGFR ≥15–29 mL/min/1.73 m^2). Hepatic function category was based on National Cancer Institute (NCI) organ dysfunction working group (ODWG) criteria for hepatic dysfunction (0 = normal, 1 = mild, 2 = moderate, 3 = severe, 4 = liver transplant).

[3] = po, 100 mg, glioma, single oral 100 mg, day −3, geometric mean (geometric CV%)
[4] = po, 100 mg, non-glioma solid tumors, single oral 100 mg, day −3, geometric mean (geometric CV%)
[5] = po, 300 mg, glioma, single oral 300 mg, day −3, geometric mean (geometric CV%)
[6] = po, 300 mg, non-glioma solid tumors, single oral 300 mg, day −3, geometric mean (geometric CV%)
[7] = po, 400 mg, non-glioma solid tumors, single oral 400 mg, day −3, geometric mean (geometric CV%)
[8] = po, 500 mg, glioma, single oral 500 mg, day −3, geometric mean (geometric CV%)
[9] = po, 500 mg, non-glioma solid tumors, single oral 500 mg, day −3, geometric mean (geometric CV%)
[10] = po, 600 mg, glioma, single oral 600 mg, day −3, geometric mean (geometric CV%)
[11] = po, 800 mg, non-glioma solid tumors, single oral 800 mg, day −3, geometric mean (geometric CV%)
[12] = po, 900 mg, glioma, single oral 900 mg, day −3, geometric mean (geometric CV%)
[13] = po, 1200 mg, non-glioma solid tumors, single oral 1200 mg, day −3, geometric mean (geometric CV%)

N#Cc1ccnc(N2C(=O)CC[C@H]2C(=O)N(c2cncc(F)c2)[C@H](C(=O)NC2CC(F)(F)C2)c2ccccc2Cl)c1 [ivosidenib]
half-life ([1]; oral, 500 mg, single dose of 500 mg, patients with cholangiocarcinoma/chondrosarcoma, read-out: mean t1/2 (converted)): 64 h
half-life ([1]; oral, 500 mg, single dose of 500 mg, patients with glioma, read-out: mean t1/2 (converted)): 56 h
half-life ([1]; oral, after single dose, range of means across doses and tumor types, read-out: terminal half-life (mean)): 40 to 102 h
Tmax ([1]; oral, single dose day −3, range across all tumor types, read-out: median Tmax): 2 to 6 h
half-life ([1]; oral, single dose, patients with glioma, range across doses, read-out: mean t1/2 (converted)): 40 to 56 h
half-life ([1]; oral, single dose, patients with non-glioma solid tumors, range across doses, read-out: mean t1/2 (converted)): 62 to 102 h
Cmax [1, 3]: 1270 ng/mL
AUC(0-t) [1, 3]: 32800 ng·h/mL
half-life ([1]; po, 100 mg, glioma, single oral 100 mg, day −3, geometric mean (geometric CV%), read-out: t1/2 (converted)): 55.5 h
Tmax ([1]; po, 100 mg, glioma, single oral 100 mg, day −3, median (minimum; maximum), read-out: Tmax): 2.03 h
Cmax [1, 4]: 1400 ng/mL
AUC(0-t) [1, 4]: 34800 ng·h/mL
half-life ([1]; po, 100 mg, non-glioma solid tumors, single oral 100 mg, day −3, geometric mean (geometric CV%), read-out: t1/2 (converted)): 102 h
Tmax ([1]; po, 100 mg, non-glioma solid tumors, single oral 100 mg, day −3, median (minimum; maximum), read-out: Tmax): 3 h
Cmax [1, 5]: 2300 ng/mL
AUC(0-t) [1, 5]: 62500 ng·h/mL
half-life ([1]; po, 300 mg, glioma, single oral 300 mg, day −3, geometric mean (geometric CV%), read-out: t1/2 (converted)): 53.6 h
Tmax ([1]; po, 300 mg, glioma, single oral 300 mg, day −3, median (minimum; maximum), read-out: Tmax): 4 h
Cmax [1, 6]: 2350 ng/mL
AUC(0-t) [1, 6]: 71600 ng·h/mL
half-life ([1]; po, 300 mg, non-glioma solid tumors, single oral 300 mg, day −3, geometric mean (geometric CV%), read-out: t1/2 (converted)): 77.9 h
Tmax ([1]; po, 300 mg, non-glioma solid tumors, single oral 300 mg, day −3, median (minimum; maximum), read-out: Tmax): 4.17 h
Cmax [1, 7]: 4230 ng/mL
AUC(0-t) [1, 7]: 141000 ng·h/mL
half-life ([1]; po, 400 mg, non-glioma solid tumors, single oral 400 mg, day −3, geometric mean (geometric CV%), read-out: t1/2 (converted)): 77.3 h
Tmax ([1]; po, 400 mg, non-glioma solid tumors, single oral 400 mg, day −3, median (minimum; maximum), read-out: Tmax): 3 h
Cmax [1, 8]: 2370 ng/mL
AUC(0-t) [1, 8]: 81900 ng·h/mL
half-life ([1]; po, 500 mg, glioma, single oral 500 mg, day −3, geometric mean (geometric CV%), read-out: t1/2 (converted)): 56.4 h
Tmax ([1]; po, 500 mg, glioma, single oral 500 mg, day −3, median (minimum; maximum), read-out: Tmax): 3.54 h
Cmax [1, 9]: 3660 ng/mL
AUC(0-t) [1, 9]: 112000 ng·h/mL
half-life ([1]; po, 500 mg, non-glioma solid tumors, single oral 500 mg, day −3, geometric mean (geometric CV%), read-out: t1/2 (converted)): 64.3 h
Tmax ([1]; po, 500 mg, non-glioma solid tumors, single oral 500 mg, day −3, median (minimum; maximum), read-out: Tmax): 2.92 h
Cmax [1, 10]: 3380 ng/mL
AUC(0-t) [1, 10]: 77700 ng·h/mL
half-life ([1]; po, 600 mg, glioma, single oral 600 mg, day −3, geometric mean (geometric CV%), read-out: t1/2 (converted)): 39.5 h
Tmax ([1]; po, 600 mg, glioma, single oral 600 mg, day −3, median (minimum; maximum), read-out: Tmax): 3 h
Cmax [1, 11]: 6190 ng/mL
AUC(0-t) [1, 11]: 179000 ng·h/mL
half-life ([1]; po, 800 mg, non-glioma solid tumors, single oral 800 mg, day −3, geometric mean (geometric CV%), read-out: t1/2 (converted)): 62.8 h
Tmax ([1]; po, 800 mg, non-glioma solid tumors, single oral 800 mg, day −3, median (minimum; maximum), read-out: Tmax): 3 h
Cmax [1, 12]: 3440 ng/mL
AUC(0-t) [1, 12]: 98600 ng·h/mL
half-life ([1]; po, 900 mg, glioma, single oral 900 mg, day −3, geometric mean (geometric CV%), read-out: t1/2 (converted)): 54.3 h
Tmax ([1]; po, 900 mg, glioma, single oral 900 mg, day −3, median (minimum; maximum), read-out: Tmax): 2.55 h
Cmax [1, 13]: 5990 ng/mL
AUC(0-t) [1, 13]: 212000 ng·h/mL
half-life ([1]; po, 1200 mg, non-glioma solid tumors, single oral 1200 mg, day −3, geometric mean (geometric CV%), read-out: t1/2 (converted)): 61.6 h
Tmax ([1]; po, 1200 mg, non-glioma solid tumors, single oral 1200 mg, day −3, median (minimum; maximum), read-out: Tmax): 6 h
effect of concomitant weak CYP3A4 inhibitors or inducers on CLss/F [2]: no apparent effect; also recorded: did not appear to affect
effect of mild or moderate renal impairment or mild hepatic impairment on CLss/F [2]: no apparent effect
